# Laboratory results reported in PubChem BioAssay (NCI).
#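 At the GI50, growth is halved. The concentration for full growth arrest is given as TGI.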
# Columns and labels:
# Assay in all cases: NCI anticancer screen, dose series, 384-well format
# CCRF-CEM leukemia = system: CCRF-CEM leukemia
# IGROV1 ovarian = system: IGROV1 ovarian
# A498 renal = system: A498 renal
# OVCAR-3 ovarian = system: OVCAR-3 ovarian
# BT-549 breast = system: BT-549 breast
# SW-620 colon = system: SW-620 colon
# PC-3 prostate = system: PC-3 prostate
# NCI-H226 lung = system: NCI-H226 lung
# HCT-116 colon = system: HCT-116 colon
# OVCAR-5 ovarian = system: OVCAR-5 ovarian
# ACHN renal = system: ACHN renal
# UO-31 renal = system: UO-31 renal
# TK-10 renal = system: TK-10 renal
# HS 578T breast = system: HS 578T breast
# SF-295 CNS = system: SF-295 CNS
# MDA-MB-468 breast = system: MDA-MB-468 breast
# NCI-H322M lung = system: NCI-H322M lung
# HCC-2998 colon = system: HCC-2998 colon
# NCI-H522 lung = system: NCI-H522 lung
# RXF 393 renal = system: RXF 393 renal
# MALME-3M melanoma = system: MALME-3M melanoma
# RPMI-8226 leukemia = system: RPMI-8226 leukemia
# SK-MEL-5 melanoma = system: SK-MEL-5 melanoma
# T-47D breast = system: T-47D breast
# U251 glioblastoma = system: U251 glioblastoma
# SF-539 CNS = system: SF-539 CNS
# 786-0 renal = system: 786-0 renal
# M14 melanoma = system: M14 melanoma
# HT29 colon = system: HT29 colon
# HOP-62 NSCLC = system: HOP-62 NSCLC
# HL-60(TB) leukemia = system: HL-60(TB) leukemia
# HOP-92 NSCLC = system: HOP-92 NSCLC
# OVCAR-4 ovarian = system: OVCAR-4 ovarian
# COLO 205 colon = system: COLO 205 colon
# A549 NSCLC = system: A549 NSCLC
# NCI-H460 NSCLC = system: NCI-H460 NSCLC
# SNB-75 CNS = system: SNB-75 CNS
# OVCAR-8 ovarian = system: OVCAR-8 ovarian
# SNB-19 CNS = system: SNB-19 CNS
# K-562 leukemia = system: K-562 leukemia
# MDA-MB-231 breast = system: MDA-MB-231 breast
# CAKI-1 renal = system: CAKI-1 renal
# LOX IMVI melanoma = system: LOX IMVI melanoma
# UACC-62 melanoma = system: UACC-62 melanoma
# SN12C renal = system: SN12C renal
# MCF7 breast = system: MCF7 breast
# MOLT-4 leukemia = system: MOLT-4 leukemia
# DU-145 prostate = system: DU-145 prostate
# KM12 colon = system: KM12 colon
# HCT-15 colon = system: HCT-15 colon
# MDA-MB-435 melanoma = system: MDA-MB-435 melanoma
# SK-OV-3 ovarian = system: SK-OV-3 ovarian
# SF-268 CNS = system: SF-268 CNS
# SK-MEL-28 melanoma = system: SK-MEL-28 melanoma
# NCI/ADR-RES ovarian = system: NCI/ADR-RES ovarian
# NCI-H23 lung = system: NCI-H23 lung
# EKVX NSCLC = system: EKVX NSCLC
# UACC-257 melanoma = system: UACC-257 melanoma
smiles,measurement,setting,value
CN1CCN(CCOc2cc(OC3CCOCC3)c3c(Nc4c(Cl)ccc5c4OCO5)ncnc3c2)CC1,GI50,CCRF-CEM leukemia,14.3 µM
same,TGI,CCRF-CEM leukemia,27.4 µM
same,GI50,IGROV1 ovarian,0.0603 µM
same,TGI,IGROV1 ovarian,0.295 µM
same,GI50,A498 renal,1.95 µM
same,TGI,A498 renal,12.6 µM
same,GI50,OVCAR-3 ovarian,1.14 µM
same,TGI,OVCAR-3 ovarian,16.8 µM
same,GI50,BT-549 breast,2.77 µM
same,TGI,BT-549 breast,16.2 µM
same,GI50,SW-620 colon,19.3 µM
same,TGI,SW-620 colon,33.5 µM
same,GI50,PC-3 prostate,14.1 µM
same,TGI,PC-3 prostate,35 µM
same,GI50,NCI-H226 lung,12.5 µM
same,TGI,NCI-H226 lung,26.6 µM
same,GI50,HCT-116 colon,10.7 µM
same,TGI,HCT-116 colon,22.5 µM
same,GI50,OVCAR-5 ovarian,0.679 µM
same,TGI,OVCAR-5 ovarian,12 µM
same,GI50,ACHN renal,0.317 µM
same,TGI,ACHN renal,12.6 µM
same,GI50,UO-31 renal,0.446 µM
same,TGI,UO-31 renal,15.4 µM
same,GI50,TK-10 renal,1.67 µM
same,TGI,TK-10 renal,5.54 µM
same,GI50,HS 578T breast,0.387 µM
same,TGI,HS 578T breast,4.35 µM
same,GI50,SF-295 CNS,11.4 µM
same,TGI,SF-295 CNS,23.5 µM
same,GI50,MDA-MB-468 breast,0.403 µM
same,TGI,MDA-MB-468 breast,1.95 µM
same,GI50,NCI-H322M lung,0.387 µM
same,TGI,NCI-H322M lung,10.3 µM
same,GI50,HCC-2998 colon,5.25 µM
same,TGI,HCC-2998 colon,19 µM
same,GI50,NCI-H522 lung,0.179 µM
same,TGI,NCI-H522 lung,10.7 µM
same,GI50,RXF 393 renal,0.215 µM
same,TGI,RXF 393 renal,2.94 µM
same,GI50,MALME-3M melanoma,14.1 µM
same,TGI,MALME-3M melanoma,27.1 µM
same,GI50,RPMI-8226 leukemia,14.4 µM
same,TGI,RPMI-8226 leukemia,27.5 µM
same,GI50,SK-MEL-5 melanoma,10.8 µM
same,TGI,SK-MEL-5 melanoma,22.8 µM
same,GI50,T-47D breast,0.171 µM
same,TGI,T-47D breast,3.06 µM
same,GI50,U251 glioblastoma,6.67 µM
same,TGI,U251 glioblastoma,19.9 µM
same,GI50,SF-539 CNS,10.7 µM
same,TGI,SF-539 CNS,22.6 µM
same,GI50,786-0 renal,0.943 µM
same,TGI,786-0 renal,15.2 µM
same,GI50,M14 melanoma,15.2 µM
same,TGI,M14 melanoma,28.6 µM
same,GI50,HT29 colon,1.43 µM
same,TGI,HT29 colon,8.86 µM
same,GI50,HOP-62 NSCLC,6.29 µM
same,TGI,HOP-62 NSCLC,19.7 µM
same,GI50,HL-60(TB) leukemia,22.3 µM
same,TGI,HL-60(TB) leukemia,36.8 µM
same,GI50,HOP-92 NSCLC,2.33 µM
same,TGI,HOP-92 NSCLC,17.4 µM
same,GI50,OVCAR-4 ovarian,13 µM
same,TGI,OVCAR-4 ovarian,26.1 µM
same,GI50,COLO 205 colon,14.9 µM
same,TGI,COLO 205 colon,28.1 µM
same,GI50,A549 NSCLC,1.45 µM
same,TGI,A549 NSCLC,17.9 µM
same,GI50,NCI-H460 NSCLC,12.7 µM
same,TGI,NCI-H460 NSCLC,25.5 µM
same,GI50,SNB-75 CNS,0.233 µM
same,TGI,SNB-75 CNS,0.835 µM
same,GI50,OVCAR-8 ovarian,8.72 µM
same,TGI,OVCAR-8 ovarian,21.3 µM
same,GI50,SNB-19 CNS,9.59 µM
same,TGI,SNB-19 CNS,29 µM
same,GI50,K-562 leukemia,0.132 µM
same,TGI,K-562 leukemia,0.306 µM
same,GI50,MDA-MB-231 breast,2.83 µM
same,TGI,MDA-MB-231 breast,17.6 µM
same,GI50,CAKI-1 renal,0.514 µM
same,TGI,CAKI-1 renal,13.6 µM
same,GI50,LOX IMVI melanoma,0.448 µM
same,TGI,LOX IMVI melanoma,7 µM
same,GI50,UACC-62 melanoma,14.1 µM
same,TGI,UACC-62 melanoma,27.1 µM
same,GI50,SN12C renal,0.377 µM
same,TGI,SN12C renal,12.8 µM
same,GI50,MCF7 breast,9.74 µM
same,TGI,MCF7 breast,21.7 µM
same,GI50,MOLT-4 leukemia,8.27 µM
same,TGI,MOLT-4 leukemia,21.2 µM
same,GI50,DU-145 prostate,5.09 µM
same,TGI,DU-145 prostate,18.7 µM
same,GI50,KM12 colon,0.658 µM
same,TGI,KM12 colon,14 µM
same,GI50,HCT-15 colon,3.68 µM
same,TGI,HCT-15 colon,18.9 µM
same,GI50,MDA-MB-435 melanoma,16.2 µM
same,TGI,MDA-MB-435 melanoma,29.8 µM
same,GI50,SK-OV-3 ovarian,0.317 µM
same,TGI,SK-OV-3 ovarian,13 µM
same,GI50,SF-268 CNS,0.55 µM
same,TGI,SF-268 CNS,3.18 µM
same,GI50,SK-MEL-28 melanoma,14.7 µM
same,TGI,SK-MEL-28 melanoma,27.9 µM
same,GI50,NCI/ADR-RES ovarian,10.6 µM
same,TGI,NCI/ADR-RES ovarian,23.8 µM
same,GI50,NCI-H23 lung,5.77 µM
same,TGI,NCI-H23 lung,20.9 µM
same,GI50,EKVX NSCLC,0.552 µM
same,TGI,EKVX NSCLC,11.9 µM
same,GI50,UACC-257 melanoma,2.53 µM
same,TGI,UACC-257 melanoma,10.5 µM
